Here are results for 28 molecules from patent US4157392A, “Pharmacologically active substituted 1,2,4-triazines” (Diamond Shamrock Corporation, priority 1978, dated 1979).

Counter-ions that a name gives are not always drawn. Like-named read-outs stand apart in the source and are kept apart here.

In this assay the test system is phenylquinone writhing in mice. Nature of the assay: Phenylquinone Writhing Assay (analgesia). In kind it is in vivo, mouse (Carworth CF1 male mice). As to conditions: Mus musculus, po, read-out: Phenylquinone Writhing Assay (% Control), percent analgesia; for responders at 50 mg/kg: 50 mg/kg oral; for responders at 100 mg/kg: 100 mg/kg oral; for responders at 25 mg/kg: 25 mg/kg oral; for responders at 60 mg/kg: 60 mg/kg oral; for responders at 75 mg/kg: 75 mg/kg oral. On the procedure: The phenylquinone writhing test was employed to evaluate analgesic activity according to the following procedure:
Phenylquinone (phenyl-p-benzoquinone, No. 7104, Eastman Organic Chemicals) is made up as a 0.02% aqueous solution in 5% ethyl alcohol. Phenylquinone solutions are made up fresh twice daily. Standard reference agents and the test compounds are dissolved or suspended in a 0.25% methylcellulose solution. A control group consisting of ten mice (Carworth CF1 male mice) are administered the 0.02% phenylquinone solution at a dose of 0.25 ml/mouse. The mice are housed individually and observed closely for ten minutes for exhibition of writhing. The onset of writhing occurs within three minutes and 100% of the mice must writhe within ten minutes. Test compounds are administered orally to groups of ten mice. The volume given is 0.01 ml/gram of body weight. Activity can be studied at 15, 30, 60, and 120 minutes after oral administration. After the designated time interval of a dose group has elapsed, the mice are challenged with phenylquinone intraperitoneally. Complete blocking of the writhing syndrom for the ten minute observation period in any one mouse is considered a positive analgesic response for that mouse. Conversely, if any mouse writhes definitely once it is considered not to be protected. The number of mice not writhing in group multiplied by ten equals percent analgesia for that dose at that time interval.

With `CC(N)C(=O)NNc1nncc(-c2ccc(Cl)cc2)n1` (centres unmarked) [Example 114, N2-(5-p-chlorophenyl-1,2,4-triazin-3-yl) alanine hydrazide (dihydrobromide hydrate)], the responders at 50 mg/kg was 50% (0.25 h, 15 Min.); 50% (0.5 h, 30 Min.); 60% (1 h, 60 Min).

Regarding `COc1nnc(-c2ccc(OC)c(OC)c2)c(-c2ccc(OC)c(OC)c2)n1` [Example 92, 3-methoxy-5,6-bis(3',4'-dimethoxyphenyl)-1,2,4-triazine], the responders at 100 mg/kg by setting is: (0.25 h, 15 Min.) 10%; (0.5 h, 30 Min.) 10%.

Turning to `CSc1nncc(-c2ccc(Cl)cc2)n1` [Example 74, 3-methylthio-5-(4'-chlorophenyl)-1,2,4-triazine], for the setting “0.25 h, 15 Min.”, the responders at 100 mg/kg stood at 10%.

`CSc1nncc(-c2ccc(C)cc2)n1` [Example 72, 3-methylthio-(4'-methylphenyl)-1,2,4-triazine]: under “0.25 h, 15 Min.”, the responders at 100 mg/kg worked out at 20%.

Consider `Cc1ccc(-c2nnc(C)nc2-c2ccc(C)cc2)cc1` [Example 78, 3-methyl-5,6-bis-(4'-methylphenyl)-1,2,4-triazine], for which the responders at 50 mg/kg (0.25 h, 15 Min.) was 20%; the responders at 50 mg/kg (0.5 h, 30 Min.) is 20%; the responders at 50 mg/kg (1 h, 60 Min) is 20%. For the same molecule, the responders at 100 mg/kg runs as follows: (0.25 h, 15 Min.) 50%; (0.5 h, 30 Min.) 80%; (1 h, 60 Min) 50%.

As for `NNc1nncc(-c2cccc(C(F)(F)F)c2)n1` [Example 67, 3-hydrazino-5-(3'-trifluoromethylphenyl)-1,2,4-triazine], the responders at 50 mg/kg reads like this: (0.25 h, 15 Min.) 70%; (0.5 h, 30 Min.) 30%; (1 h, 60 Min) 30%. The responders at 100 mg/kg is 10% (0.25 h, 15 Min.); 60% (0.5 h, 30 Min.); 40% (1 h, 60 Min). In addition, the responders at 25 mg/kg was 20% (0.5 h, 30 Min.) and 10% (1 h, 60 Min).

With `CSc1nncc(-c2cccc3ccccc23)n1` [Example 71, 3-methylthio-5-(1'-naphthyl)-1,2,4-triazine], the responders at 100 mg/kg runs as follows: (0.5 h, 30 Min.) 10%; (1 h, 60 Min) 20%.

For `CSc1nncc(-c2ccc3c(c2)OCO3)n1` [Example 86, 3-methylthio-5-(3',4'-methylenedioxyphenyl)-1,2,4-triazine], under “0.25 h, 15 Min.”, the responders at 100 mg/kg worked out at 20%.

For the molecule `c1ccc(-c2nnc(-c3ccccn3)nc2-c2ccccc2)cc1` [Example 81, 3-(2'-pyridyl)-5,6-diphenyl-1,2,4-triazine], the responders at 100 mg/kg reads like this: (0.25 h, 15 Min.) 10%; (0.5 h, 30 Min.) 20%.

For the molecule `CCOc1ccc(-c2cnnc(SC)n2)cc1` [Example 88, 3-methylthio-5-(4'-ethoxyphenyl)-1,2,4-triazine], the responders at 100 mg/kg (0.25 h, 15 Min.) is 10%.

`CSc1nnc(-c2ccco2)c(-c2ccco2)n1` [Example 76, 3-methylthio-5,6-bis-(2'-furyl)-1,2,4-triazine]: under “0.25 h, 30 mg/kg oral, 15 Min.”, the responders at 30 mg/kg is 10%.

With `COc1nncc(-c2cccc(Cl)c2)n1` [Example 75, 3-methoxy-5-(3'-chlorophenyl)-1,2,4-triazine], the responders at 60 mg/kg reads like this: (0.25 h, 15 Min.) 100%; (0.5 h, 30 Min.) 90%; (1 h, 60 Min) 70%.

As for `COc1ccc(-c2cnnc(OC)n2)cc1` [Example 91, 3-methoxy-5-(4'-methoxyphenyl)-1,2,4-triazine], the responders at 100 mg/kg came out at 30% (0.25 h, 15 Min.) and 10% (0.5 h, 30 Min.).

Consider `COc1nncc(-c2c(C)cc(C)cc2C)n1` [Example 89, 3-methoxy-5-(2',4',6'-trimethylphenyl)-1,2,4-triazine], for which the responders at 100 mg/kg was 10% (0.25 h, 15 Min.) and 10% (1 h, 60 Min).

`COc1cccc(-c2cnnc(OC)n2)c1` [Example 69, 3-methoxy-5-(3'-methoxyphenyl)-1,2,4-triazine]: the responders at 50 mg/kg is, setting by setting: (0.25 h, 15 Min.) 10%; (0.5 h, 30 Min.) 20%; (1 h, 60 Min) 20%. Also, the responders at 100 mg/kg (0.25 h, 15 Min.) stood at 10%; the responders at 100 mg/kg (0.5 h, 30 Min.) was found to be 20%; the responders at 100 mg/kg (1 h, 60 Min) was 10%.

In the case of `COc1ccc(-c2nnc(SC)nc2-c2ccc(OC)cc2)cc1` [Example 93, 3-methylthio-5,6-bis(4'-methoxyphenyl)-1,2,4-triazine], the responders at 100 mg/kg by setting is: (0.25 h, 15 Min.) 20%; (0.5 h, 30 Min.) 30%; (1 h, 60 Min) 30%.

As for `COc1cc(-c2cnnc(SC)n2)ccc1OCc1ccccc1` [Example 83, 3-methylthio-5-(3'-methoxy-4'-benzyloxyphenyl)-1,2,4-triazine], the responders at 100 mg/kg (0.25 h, 15 Min.) was 10%.

With `NNc1nnc(-c2ccco2)c(-c2ccco2)n1` [Example 77, 3-hydrazino-5,6-bis-(2'-furyl)-1,2,4-triazine], the responders at 25 mg/kg worked out at 20% (0.25 h, 15 Min.); 20% (0.5 h, 30 Min.); 20% (1 h, 60 Min). In addition, the responders at 75 mg/kg by setting is: (0.25 h, 15 Min.) 20%; (0.5 h, 30 Min.) 10%; (1 h, 60 Min) 10%.

Take `COc1ncc(-c2ccccc2)nn1` [Example 82, 3-methoxy-6-phenyl-1,2,4-triazine]: under “0.25 h, 15 Min.”, the responders at 25 mg/kg was found to be 10% and the responders at 50 mg/kg was 10%. The responders at 50 mg/kg (0.5 h, 30 Min.) amounted to 10%.

For the molecule `CC(C)Oc1nnc(-c2ccccc2)c(-c2ccccc2)n1` [Example 95, 3-isopropoxy-5,6-diphenyl-1,2,4-triazine], the responders at 100 mg/kg is, setting by setting: (0.25 h, 15 Min.) 10%; (0.5 h, 30 Min.) 10%; (1 h, 60 Min) 20%.

In the case of `COc1ccc(-c2nnc(SC)nc2-c2ccc(OC)c(OC)c2)cc1OC` [Example 80, 3-methylthio-5,6-bis(3',4'-dimethoxyphenyl)-1,2,4-triazine], the responders at 100 mg/kg reads like this: (0.25 h, 15 Min.) 10%; (0.5 h, 30 Min.) 10%.

`COc1nncc(-c2c3ccccc3cc3ccccc23)n1` [Example 85, 3-methoxy-5-(9'-anthracenyl)-1,2,4-triazine]: the responders at 100 mg/kg (0.25 h, 15 Min.) is 10%.

Take `Cc1nnc(S(C)(=O)=O)nc1C` [Example 79, 3-methylsulfonyl-5,6-dimethyl-1,2,4-triazine]: the responders at 100 mg/kg reads like this: (0.5 h, 30 Min.) 30%; (1 h, 60 Min) 30%.

Regarding `NC(Cc1ccccc1)C(=O)NNc1nncc(-c2ccccc2)n1` (centres unmarked) [Example 116, N2-(5-phenyl-1,2,4-triazin-3-yl) phenylalanine hydrazide (dihydrobromide hydrate)], the responders at 100 mg/kg is, setting by setting: (0.25 h, 15 Min.) 30%; (0.5 h, 30 Min.) 60%; (1 h, 60 Min) 60%.

On to `COc1nncc(-c2cccs2)n1` [Example 66, 3-methoxy-5-(2'-thienyl)-1,2,4-triazine], for which the responders at 25 mg/kg (0.25 h, 15 Min.) is 20% and the responders at 25 mg/kg (0.5 h, 30 Min.) was found to be 10%. Also, the responders at 50 mg/kg reads like this: (0.25 h, 15 Min.) 80%; (0.5 h, 30 Min.) 50%; (1 h, 60 Min) 20%. The responders at 60 mg/kg is, setting by setting: (0.25 h, 15 Min.) 100%; (0.5 h, 30 Min.) 80%; (1 h, 60 Min) 40%.

For the molecule `CSc1nncc(-c2ccc(Cl)s2)n1` [Example 70, 3-methylthio-5-(5'-chloro-2'-thienyl)-1,2,4-triazine], the responders at 50 mg/kg was found to be 10% (0.25 h, 15 Min.); 20% (0.5 h, 30 Min.); 10% (1 h, 60 Min). In addition, the responders at 100 mg/kg by setting is: (0.25 h, 15 Min.) 10%; (0.5 h, 30 Min.) 20%; (1 h, 60 Min) 10%.

In the case of `CSc1nncc(-c2c3ccccc3cc3ccccc23)n1` [Example 84, 3-methylthio-5-(9'-anthracenyl)-1,2,4-triazine], the responders at 100 mg/kg was 10% (0.5 h, 30 Min.) and 20% (1 h, 60 Min).

Consider `COc1nnc(-c2ccc(Cl)cc2)c(-c2ccc(Cl)cc2)n1` [Example 96, 3-methoxy-5,6-bis(4'-chlorophenyl)-1,2,4-triazine], for which the responders at 100 mg/kg is, setting by setting: (0.5 h, 30 Min.) 30%; (1 h, 60 Min) 10%.
